Test results: patent publication US20210355104A1, “ADENOSINE RECEPTOR BINDING COMPOUNDS” (Nikang Therapeuticsm Inc., priority 2018, published 2021)
“And” between values parts separate entries of the source, which are not always exact repeats. Equal values may be shown once.

Molecular target: Adenosine A2A receptor (Homo sapiens, UniProt P29274)
Experiment: cAMP assay in 293A cells stably expressing the adenosine A2A receptor (CGS21680 stimulation, HTRF)
Assay type: cell-based
Set-up: expressed in transfected cells; host or cells: 293A cells (Invitrogen, Cat# R705-07) infected with A2A-expressing lentivirus (custom packaged by Biosettia), puromycin selected
Details: 293A cells stably expressing A2A receptor; 0.1% BSA; 1 uM CGS21680 stimulation; replicate values separated by /; read-out: cAMP (nM) 0.1% BSA, 1 uM CGS

Sequence of Adenosine A2A receptor (P29274 whole entry): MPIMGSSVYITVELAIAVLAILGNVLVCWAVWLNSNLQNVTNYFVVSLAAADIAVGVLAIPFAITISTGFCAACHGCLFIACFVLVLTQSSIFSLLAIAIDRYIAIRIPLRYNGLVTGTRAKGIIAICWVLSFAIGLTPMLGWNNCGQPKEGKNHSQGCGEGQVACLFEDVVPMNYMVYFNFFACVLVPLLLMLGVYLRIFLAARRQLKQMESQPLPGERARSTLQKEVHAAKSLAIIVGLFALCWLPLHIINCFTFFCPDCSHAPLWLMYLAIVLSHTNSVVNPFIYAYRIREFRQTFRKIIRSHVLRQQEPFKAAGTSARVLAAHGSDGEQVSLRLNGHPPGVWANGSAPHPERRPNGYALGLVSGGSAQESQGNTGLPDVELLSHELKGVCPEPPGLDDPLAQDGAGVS

| SMILES | IC50 [nM] |
| --- | --- |
| Cc1cc(-c2c(OCc3cc(C#N)cc(C(C)(C)O)n3)nc(N)nc2-c2ccc(F)cc2)cc(C(F)F)n1 [Example 435, 2-(((2-amino-5-(2-(difluoromethyl)-6-methylpyridin-4-yl)-6-(4-fluorophenyl)pyrimidin-4-yl)oxy)methyl)-6-(2-hydroxypropan-2-yl)isonicotinonitrile] | 506 |
| Cc1cc(-c2c(OCc3nc(C(C)(C)O)ccc3C(C)(C)O)nc(N)nc2-c2ccc(F)cc2)cc(C(F)F)n1 [Example 438, 2,2-(6-(((2-amino-5-(2-(difluoromethyl)-6-methylpyridin-4-yl)-6-(4-fluorophenyl)pyrimidin-4-yl)oxy)methyl)pyridine-2,5-diyl)bis(propan-2-ol)] | 3180 |
| Cc1cc(-c2c(OCc3nccc4nn(C)cc34)nc(N)nc2-c2ccc(F)cc2)cc(C(F)F)n1 [Example 430, 5-(2-(difluoromethyl)-6-methylpyridin-4-yl)-4-(4-fluorophenyl)-6-((2-methyl-2H-pyrazolo[4,3-c]pyridin-4-yl)methoxy)pyrimidin-2-amine] | 2460 |

Same assay, conditions: 293A-A2AR cells, 0.1% BSA, 8 nM CGS; values separated by / are repeat determinations; read-out: cAMP (nM) 0.1% BSA, 8 nM CGS

| SMILES | IC50 |
| --- | --- |
| Cc1cc(-c2c(OCCN(C)c3ncccn3)nc(N)nc2-c2ccc(F)cc2)cc(C(F)F)n1 [Example 145, 5-(2-(difluoromethyl)-6-methylpyridin-4-yl)-4-(4-fluorophenyl)-6-(2-(methyl(pyrimidin-2-yl)amino)ethoxy)pyrimidin-2-amine] | 0.9 nM and 1.2 nM |
| CC(=O)Nc1ccc(CCOc2nc(N)nc(-c3ccccc3)c2-c2cc(C)nc(C(F)(F)F)c2)cc1 [Example 9, N-(4-(2-((2-amino-5-(2-methyl-6-(trifluoromethyl)pyridin-4-yl)-6-phenylpyrimidin-4-yl)oxy)ethyl)phenyl)acetamide] | 5.7 nM and 14 nM |

Same assay, conditions: 293A-A2AR cells, 0.1% BSA, 1 uM CGS; read-out: cAMP (nM) 0.1% BSA, 1 uM CGS

| SMILES | IC50 |
| --- | --- |
| Cc1cc(-c2c(OCc3cc4ccccc4n3C)nc(N)nc2-c2ccc(F)cc2)cc(C(F)F)n1 [Example 319, 5-(2-(difluoromethyl)-6-methylpyridin-4-yl)-4-(4-fluorophenyl)-6-((1-methyl-1H-indol-2-yl)methoxy)pyrimidin-2-amine] | 209 nM and 256 nM |
| Cc1cc(-c2c(OCc3cccc(C(C)(C)C(=O)O)c3F)nc(N)nc2-c2ccc(F)cc2)cc(C(F)F)n1 [Example 370, 2-(3-(((2-amino-5-(2-(difluoromethyl)-6-methylpyridin-4-yl)-6-(4-fluorophenyl)pyrimidin-4-yl)oxy)methyl)-2-fluorophenyl)-2-methylpropanoic acid] | 5430 nM |
| Cc1cc(-c2c(OCc3cccc(C(C)O)n3)nc(N)nc2-c2ccc(F)cc2)cc(C(F)F)n1 (stereo not drawn) [Example 272, 1-(6-(((2-amino-5-(2-(difluoromethyl)-6-methylpyridin-4-yl)-6-(4-fluorophenyl)pyrimidin-4-yl)oxy)methyl)pyridin-2-yl)ethan-1-ol] | 88 nM and 161 nM |
| Cc1cc(-c2c(OCc3nncn3CC3CC3)nc(N)nc2-c2ccc(F)cc2)cc(C(F)F)n1 [Example 234] | 647 nM |
| Cc1cc(-c2c(OCc3nc4ccc(C(C)(C)O)cc4n3C)nc(N)nc2-c2ccc(F)cc2)cc(C(F)F)n1 [Example 358, 2-(2-(((2-amino-5-(2-(difluoromethyl)-6-methylpyridin-4-yl)-6-(4-fluorophenyl)pyrimidin-4-yl)oxy)methyl)-1-methyl-1H-benzo[d]imidazol-6-yl)propan-2-ol] | 940 nM and 1060 nM |
| Cc1cc(-c2c(OCc3nc4nc(C(C)(C)C(=O)O)ccc4n3C)nc(N)nc2-c2ccc(F)cc2)cc(C(F)F)n1 [Example 374, 2-(2-(((2-amino-5-(2-(difluoromethyl)-6-methylpyridin-4-yl)-6-(4-fluorophenyl)pyrimidin-4-yl)oxy)methyl)-1-methyl-1H-imidazo[4,5-b]pyridin-5-yl)-2-methylpropanoic acid] | > 25000 nM |
| CCc1nnn(CC(O)COC)c1COc1nc(N)nc(-c2ccc(F)cc2)c1-c1cc(C)nc(C(F)F)c1 (stereo not drawn) [Example 322, 1-(5-(((2-amino-5-(2-(difluoromethyl)-6-methylpyridin-4-yl)-6-(4-fluorophenyl)pyrimidin-4-yl)oxy)methyl)-4-ethyl-1H-1,2,3-triazol-1-yl)-3-methoxypropan-2-ol] | 2470 nM |
| Cc1cc(-c2c(OCc3nc4ccccn4n3)nc(N)nc2-c2ccc(F)cc2)cc(C(F)F)n1 [Example 341, 4-([1,2,4]triazolo[1,5-a]pyridin-2-ylmethoxy)-5-(2-(difluoromethyl)-6-methylpyridin-4-yl)-6-(4-fluorophenyl)pyrimidin-2-amine] | 1400 nM |
| Cc1cc(-c2c(OCc3nc4ccccc4s3)nc(N)nc2-c2ccc(F)cc2)cc(C(F)F)n1 [Example 347, 4-(benzo[d]thiazol-2-ylmethoxy)-5-(2-(difluoromethyl)-6-methylpyridin-4-yl)-6-(4-fluorophenyl)pyrimidin-2-amine] | 634 nM |
| Cc1cc(-c2c(OCc3cccc(N)n3)nc(N)nc2-c2ccc(F)cc2)cc(C(F)F)n1 [Example 376] | 133 nM and 209 nM and 375 nM and 142 nM and 48 nM |
| Cc1cc(-c2c(OCc3cccc(N4CCCC4)n3)nc(N)nc2-c2ccc(F)cc2)cc(C(F)F)n1 [Example 283, 5-(2-(difluoromethyl)-6-methylpyridin-4-yl)-4-(4-fluorophenyl)-6-((6-(pyrrolidin-1-yl)pyridin-2-yl)methoxy)pyrimidin-2-amine] | 1170 nM |
| CCn1c(COc2nc(N)nc(-c3ccc(F)cc3)c2-c2cc(C)nc(C(F)F)c2)nc2cc(C(=O)O)ccc21 [Example 333, 2-(((2-amino-5-(2-(difluoromethyl)-6-methylpyridin-4-yl)-6-(4-fluorophenyl)pyrimidin-4-yl)oxy)methyl)-1-ethyl-1H-benzo[d]imidazole-5-carboxylic acid] | > 5000 nM |
| CCn1nccc1COc1nc(N)nc(-c2cccc(C#N)c2C)c1-c1cc(C)nc(C(F)F)c1 [Example 243, 3-(2-amino-5-(2-(difluoromethyl)-6-methylpyridin-4-yl)-6-((1-ethyl-1H-pyrazol-5-yl)methoxy)pyrimidin-4-yl)-2-methylbenzonitrile] | 2950 nM |
| Cc1cc(-c2c(NCc3nc4ccccc4n3C)nc(N)nc2-c2ccc(F)cc2)cc(C(F)F)n1 [Example 351, 5-(2-(difluoromethyl)-6-methylpyridin-4-yl)-6-(4-fluorophenyl)-N^4-((1-methyl-1H-benzo[d]imidazol-2-yl)methyl)pyrimidine-2,4-diamine] | 13100 nM |
| Cc1cc(-c2c(OCc3ccnc(C(C)(C)O)c3)nc(N)nc2-c2ccc(F)cc2)cc(C(F)F)n1 [Example 287, 2-(4-(((2-amino-5-(2-(difluoromethyl)-6-methylpyridin-4-yl)-6-(4-fluorophenyl)pyrimidin-4-yl)oxy)methyl)pyridin-2-yl)propan-2-ol] | 835 nM |
| CCc1nn(CC(=O)O)nc1COc1nc(N)nc(-c2ccc(F)cc2)c1-c1cc(C)nc(C(F)F)c1 [Example 231, 2-(4-(((2-amino-5-(2-(difluoromethyl)-6-methylpyridin-4-yl)-6-(4-fluorophenyl)pyrimidin-4-yl)oxy)methyl)-5-ethyl-2H-1,2,3-triazol-2-yl)acetic acid] | > 25000 nM |
| CCn1nnc(COc2nc(N)nc(-c3cccc(C#N)c3C)c2-c2cc(C)nc(C(F)F)c2)n1 [Example 237, 3-(2-amino-5-(2-(difluoromethyl)-6-methylpyridin-4-yl)-6-((2-ethyl-2H-tetrazol-5-yl)methoxy)pyrimidin-4-yl)-2-methylbenzonitrile] | 2120 nM |
| Cc1cc(-c2c(OCc3ccnc(C(C)(C)O)n3)nc(N)nc2-c2ccc(F)cc2)cc(C(F)F)n1 [Example 308] | 164 nM and 197 nM and 159 nM and 113 nM |
| CCc1nnn(C[C@H](O)CO)c1COc1nc(N)nc(-c2ccc(F)cc2)c1-c1cc(C)nc(C(F)F)c1 [Example 318, (S)-3-(5-(((2-amino-5-(2-(difluoromethyl)-6-methylpyridin-4-yl)-6-(4-fluorophenyl)pyrimidin-4-yl)oxy)methyl)-4-ethyl-1H-1,2,3-triazol-1-yl)propane-1,2-diol] | 1350 nM |
| Cc1cc(-c2c(OCc3nc4ccc(C(C)(C)C(=O)O)cc4n3C)nc(N)nc2-c2ccc(F)cc2)cc(C(F)F)n1 [Example 368, 2-(2-(((2-amino-5-(2-(difluoromethyl)-6-methylpyridin-4-yl)-6-(4-fluorophenyl)pyrimidin-4-yl)oxy)methyl)-1-methyl-1H-benzo[d]imidazol-6-yl)-2-methylpropanoic acid] | > 25000 nM |
| Cc1cc(-c2c(OCc3ccncc3)nc(N)nc2-c2ccc(F)cc2)cc(C(F)F)n1 [Example 286, 5-(2-(difluoromethyl)-6-methylpyridin-4-yl)-4-(4-fluorophenyl)-6-(pyridin-4-ylmethoxy)pyrimidin-2-amine] | 1800 nM |
| Cc1cc(-c2c(OCc3ncc(C(C)(C)O)s3)nc(N)nc2-c2ccc(F)cc2)cc(C(F)F)n1 [Example 371, 2-(2-(((2-amino-5-(2-(difluoromethyl)-6-methylpyridin-4-yl)-6-(4-fluorophenyl)pyrimidin-4-yl)oxy)methyl)thiazol-5-yl)propan-2-ol] | 2360 nM |
| CCc1nn(CC(O)COC)nc1COc1nc(N)nc(-c2ccc(F)cc2)c1-c1cc(C)nc(C(F)F)c1 (stereo not drawn) [Example 321, 1-(4-(((2-amino-5-(2-(difluoromethyl)-6-methylpyridin-4-yl)-6-(4-fluorophenyl)pyrimidin-4-yl)oxy)methyl)-5-ethyl-2H-1,2,3-triazol-2-yl)-3-methoxypropan-2-ol] | 2290 nM |

Same assay, conditions: 293A-A2AR cells, 0.1% BSA, 1 uM CGS; values separated by / are repeat determinations; read-out: cAMP (nM) 0.1% BSA, 1 uM CGS

| SMILES | IC50 [nM] |
| --- | --- |
| Cc1cc(-c2c(OCCN(C)c3ncccn3)nc(N)nc2-c2ccc(F)cc2)cc(C(F)F)n1 [Example 145, 5-(2-(difluoromethyl)-6-methylpyridin-4-yl)-4-(4-fluorophenyl)-6-(2-(methyl(pyrimidin-2-yl)amino)ethoxy)pyrimidin-2-amine] | 123 |
| Cc1cc(-c2c(OCCN(C)c3ccncn3)nc(N)nc2-c2ccc(F)cc2)cc(C(F)F)n1 [Example 151, 5-(2-(difluoromethyl)-6-methylpyridin-4-yl)-4-(4-fluorophenyl)-6-(2-(methyl(pyrimidin-4-yl)amino)ethoxy)pyrimidin-2-amine] | > 25000 |
